The values that follow come from ChEMBL document CHEMBL1201862, “PubChem BioAssay data set” (2004).

Assay [1] has as its target T1, Endoribonuclease toxin MazF (Escherichia coli K-12, UniProt P0AE70).
T1 sequence (P0AE70 whole entry): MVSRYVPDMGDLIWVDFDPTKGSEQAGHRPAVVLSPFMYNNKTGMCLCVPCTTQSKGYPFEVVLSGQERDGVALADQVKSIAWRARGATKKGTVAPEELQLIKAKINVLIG
The assay can be described thus: MazEF toxin-antitoxin RNase activation – biochemical, fluorescence, single-stranded RNA substrate, SAR follow-up (AID 588603). It counts as functional.

The target in assay [2] is T1, Endoribonuclease toxin MazF. The assay can be described thus: activation of MazEF endoribonuclease cleavage – biochemical, fluorescence, single-stranded RNA substrate, uHTS hits, dose response (AID 588481). It counts as functional.
The subject of another assay is MEF. Put plainly: SAR analysis of small molecule cytotoxicity of MazEF TA System activators in embryonic fibroblast (MEF) cells. [Related pubchem assays (depositor defined):AID504720, AID504743]. Conditions: Mus musculus. The format is functional.
Assay [3] concerns the target T1, Endoribonuclease toxin MazF. Put plainly: SAR analysis of small molecule activators of the MazEF TA System via a fluorescence-based single-stranded RNase assay counterscreen. [Related pubchem assays (depositor defined):AID504720, AID504743]. It counts as functional. On the technique in general: The purpose of a counterscreen is to sort out artefacts and off-target activity.

Assay [4] has the same target. The assay can be described thus: substrate-only fluorescence increase artefacts – biochemical, single-stranded RNase substrate, counter-screen for MazEF activator project, dose response (AID 588502). It counts as functional.
Assay [5] has as its target Beta-2 adrenergic receptor (Homo sapiens, UniProt P07550). The assay can be described thus: ADRB2 activation measured by internalization – cell-based, FAP fluorogen, flow cytometry, cherry pick 1, dose response (AID 588763). The format is functional. (In flow cytometry, cells or beads pass a laser one at a time.)
The subject of assay [6] is HEK293. Put plainly: cells. It counts as functional, cell-based. The following applies: Homo sapiens.
For assay [7], the target named is T2, Nuclear receptor subfamily 0 group B member 1 (Homo sapiens, UniProt P51843).
T2 sequence (P51843 whole entry): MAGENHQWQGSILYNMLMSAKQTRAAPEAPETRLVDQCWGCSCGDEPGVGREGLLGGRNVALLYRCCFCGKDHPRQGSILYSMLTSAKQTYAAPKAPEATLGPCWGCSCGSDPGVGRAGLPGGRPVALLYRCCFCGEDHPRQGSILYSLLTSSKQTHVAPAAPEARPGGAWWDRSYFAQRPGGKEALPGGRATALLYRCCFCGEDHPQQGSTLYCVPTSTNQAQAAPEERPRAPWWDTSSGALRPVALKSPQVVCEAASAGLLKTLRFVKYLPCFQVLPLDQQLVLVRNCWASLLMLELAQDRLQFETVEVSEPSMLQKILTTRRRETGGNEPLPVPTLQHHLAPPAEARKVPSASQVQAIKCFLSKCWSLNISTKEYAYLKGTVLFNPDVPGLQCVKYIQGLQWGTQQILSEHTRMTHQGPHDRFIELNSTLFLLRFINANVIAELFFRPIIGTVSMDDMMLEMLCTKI
The assay can be described thus: Luminescence-based cell-based high throughput dose response assay for inhibitors of the orphan nuclear receptor subfamily 0, group B, member 1 (DAX1; NR0B1). [Related pubchem assays (depositor defined):AID504766, AID504790]. It counts as functional.

For assay [8], the target named is T3, Microphthalmia-associated transcription factor (Homo sapiens, UniProt O75030).
T3 sequence (O75030 whole entry): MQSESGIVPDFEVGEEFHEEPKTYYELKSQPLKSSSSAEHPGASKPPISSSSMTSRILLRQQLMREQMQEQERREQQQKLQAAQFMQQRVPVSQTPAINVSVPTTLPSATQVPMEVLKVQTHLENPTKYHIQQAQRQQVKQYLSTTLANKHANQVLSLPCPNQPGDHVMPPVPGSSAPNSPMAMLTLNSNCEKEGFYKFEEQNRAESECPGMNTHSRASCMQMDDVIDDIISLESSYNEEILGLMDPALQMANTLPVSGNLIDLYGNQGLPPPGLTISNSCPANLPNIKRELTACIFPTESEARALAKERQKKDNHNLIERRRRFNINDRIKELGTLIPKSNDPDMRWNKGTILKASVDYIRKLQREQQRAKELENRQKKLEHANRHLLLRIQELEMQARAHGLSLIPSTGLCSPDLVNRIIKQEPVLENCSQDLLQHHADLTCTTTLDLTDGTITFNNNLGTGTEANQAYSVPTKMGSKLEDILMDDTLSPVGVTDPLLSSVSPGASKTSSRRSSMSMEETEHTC
The assay can be described thus: reducers of TRPM1 reporter luminescence, concentration series – cell-based, SK-MEL-5, cherry-picked, set 3, MITF inhibitor project, dose response (AID 493073).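 Further: SK-MEL-5 melanoma cells with luciferase driven by the MITF target TRPM1 promoter.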 The format is functional.

The target in assay [9] is T4, Apoptotic protease-activating factor 1 (Homo sapiens, UniProt O14727).
T4 sequence (O14727 whole entry): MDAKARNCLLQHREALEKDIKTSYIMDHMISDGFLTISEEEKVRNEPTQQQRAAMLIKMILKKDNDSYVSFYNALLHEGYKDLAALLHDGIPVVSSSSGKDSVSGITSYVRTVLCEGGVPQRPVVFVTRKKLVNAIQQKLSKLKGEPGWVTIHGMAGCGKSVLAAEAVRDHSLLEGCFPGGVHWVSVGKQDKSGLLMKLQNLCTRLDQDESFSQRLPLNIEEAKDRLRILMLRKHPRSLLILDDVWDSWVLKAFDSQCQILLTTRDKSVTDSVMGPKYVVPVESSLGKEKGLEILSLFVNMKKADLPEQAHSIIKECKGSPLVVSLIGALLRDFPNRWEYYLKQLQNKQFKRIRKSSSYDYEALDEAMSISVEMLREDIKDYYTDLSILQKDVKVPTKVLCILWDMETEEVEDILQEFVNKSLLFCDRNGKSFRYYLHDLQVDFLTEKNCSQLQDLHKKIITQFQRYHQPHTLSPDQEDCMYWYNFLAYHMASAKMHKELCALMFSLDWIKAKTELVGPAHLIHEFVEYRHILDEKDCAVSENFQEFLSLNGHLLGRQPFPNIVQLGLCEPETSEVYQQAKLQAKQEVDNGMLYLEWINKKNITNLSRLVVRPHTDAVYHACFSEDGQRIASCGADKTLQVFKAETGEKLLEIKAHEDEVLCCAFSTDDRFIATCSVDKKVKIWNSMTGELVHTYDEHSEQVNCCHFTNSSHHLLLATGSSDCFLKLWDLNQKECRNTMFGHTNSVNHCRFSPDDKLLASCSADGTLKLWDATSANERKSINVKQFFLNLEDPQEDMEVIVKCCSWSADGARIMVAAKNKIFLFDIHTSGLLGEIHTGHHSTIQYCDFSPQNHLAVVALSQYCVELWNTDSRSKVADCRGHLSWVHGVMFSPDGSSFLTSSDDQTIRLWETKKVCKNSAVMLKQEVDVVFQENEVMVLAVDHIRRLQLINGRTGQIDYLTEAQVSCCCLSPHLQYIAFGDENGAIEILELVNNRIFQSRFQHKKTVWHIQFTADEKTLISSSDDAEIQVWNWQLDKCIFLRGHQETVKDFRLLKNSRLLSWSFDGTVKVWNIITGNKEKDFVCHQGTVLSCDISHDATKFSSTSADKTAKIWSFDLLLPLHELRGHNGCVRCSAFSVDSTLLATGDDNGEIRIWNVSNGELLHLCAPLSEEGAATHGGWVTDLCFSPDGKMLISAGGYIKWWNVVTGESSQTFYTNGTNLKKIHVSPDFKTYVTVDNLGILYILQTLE
It counts as functional.

The nature of assay [10]: HEK-293T cell viability reduction – luminescence, B-cell screen hits, cytotoxicity control for BCR NF-kB inhibitor project, dose response (AID 489021).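 Further: HEK-293T cells carrying an NF-kB luciferase reporter; cells exposed to compound for about 14 hours before viability readout.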 It counts as functional, cell-based.
The target of the next assay is Cytochrome P450 2C19 (Homo sapiens, UniProt P33261). Put plainly: Cytochrome panel assay with activity outcomes. Panel member name: p450-cyp2c19 Compounds with AC50 equal or less than 10 uM are considered active. It counts as functional. The following applies: read-out: AC50.
Cytochrome P450 2C19, sequence (P33261 whole entry): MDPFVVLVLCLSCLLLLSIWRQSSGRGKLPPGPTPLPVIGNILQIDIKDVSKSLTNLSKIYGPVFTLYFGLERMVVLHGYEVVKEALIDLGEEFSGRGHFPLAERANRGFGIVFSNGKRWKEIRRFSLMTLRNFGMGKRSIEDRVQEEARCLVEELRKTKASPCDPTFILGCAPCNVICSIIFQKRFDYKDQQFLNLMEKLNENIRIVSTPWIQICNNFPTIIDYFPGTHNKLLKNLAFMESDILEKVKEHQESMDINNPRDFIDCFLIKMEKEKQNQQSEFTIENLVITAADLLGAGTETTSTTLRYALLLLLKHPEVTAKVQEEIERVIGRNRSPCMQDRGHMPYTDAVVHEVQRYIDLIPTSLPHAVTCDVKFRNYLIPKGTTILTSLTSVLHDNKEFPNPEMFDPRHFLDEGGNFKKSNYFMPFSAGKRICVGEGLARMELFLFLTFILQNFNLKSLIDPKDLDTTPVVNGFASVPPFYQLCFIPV
For assay [11], the system named is HEK293. The assay can be described thus: HEK293T cell viability loss, resazurin readout – resazurin fluorescence, cytotoxicity control for NF-kB activator project, SAR follow-up (AID 493251). The format is functional, cell-based. Conditions: Homo sapiens. Background: The colour change of resazurin is a common sign of viable cells or microbes.
The subject of another assay is Jurkat. The assay can be described thus: SAR Analysis of small molecule inhibitors of T-cell specific antigen receptor-induced NF-kB activation in a Jurkat cell line using a luminescence assay - Set 2. [Related pubchem assays (depositor defined):AID435003, AID435012, AID465]. It counts as functional, cell-based. The following applies: Homo sapiens.
Assay [12] concerns HEK293. Put plainly: SAR Analysis of small molecule inhibitors of T-cell specific antigen receptor-induced NF-kB activation in a HEK-293T cell line using a luminescence assay - Set 2. [Related pubchem assays (depositor defined):AID435003, AID435012, AID489026]. Conditions: Homo sapiens. The format is functional, cell-based.
A further assay deals with Cytochrome P450 2C9 (Homo sapiens, UniProt P11712).
Cytochrome P450 2C9, sequence (P11712 whole entry): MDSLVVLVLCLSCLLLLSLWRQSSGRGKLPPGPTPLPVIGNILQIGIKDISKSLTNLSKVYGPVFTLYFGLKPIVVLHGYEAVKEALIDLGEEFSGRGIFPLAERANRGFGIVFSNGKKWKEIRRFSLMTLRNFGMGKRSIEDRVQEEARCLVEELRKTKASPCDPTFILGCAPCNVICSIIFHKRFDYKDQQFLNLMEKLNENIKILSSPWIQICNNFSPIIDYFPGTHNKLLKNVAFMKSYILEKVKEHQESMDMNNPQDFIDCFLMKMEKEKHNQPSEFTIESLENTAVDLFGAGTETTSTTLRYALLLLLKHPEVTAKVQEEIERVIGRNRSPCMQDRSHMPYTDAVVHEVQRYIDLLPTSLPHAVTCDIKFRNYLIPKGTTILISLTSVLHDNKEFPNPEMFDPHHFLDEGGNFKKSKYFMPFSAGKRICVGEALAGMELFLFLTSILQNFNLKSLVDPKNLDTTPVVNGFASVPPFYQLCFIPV

The source made the active and inactive calls.

Beta-2 adrenergic receptor, sequence (P07550 whole entry): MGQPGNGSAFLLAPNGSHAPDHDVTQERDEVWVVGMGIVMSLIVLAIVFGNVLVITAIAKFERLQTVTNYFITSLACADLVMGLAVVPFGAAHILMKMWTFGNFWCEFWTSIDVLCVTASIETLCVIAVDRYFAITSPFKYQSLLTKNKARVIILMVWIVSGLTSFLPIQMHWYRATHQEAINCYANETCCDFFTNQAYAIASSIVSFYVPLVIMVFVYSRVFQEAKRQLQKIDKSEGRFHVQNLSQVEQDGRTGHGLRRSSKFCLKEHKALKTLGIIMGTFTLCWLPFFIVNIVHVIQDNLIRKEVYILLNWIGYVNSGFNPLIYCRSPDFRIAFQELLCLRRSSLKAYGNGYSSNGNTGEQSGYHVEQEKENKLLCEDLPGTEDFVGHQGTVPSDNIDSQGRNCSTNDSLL

By EC50 is commonly meant the concentration needed to bring the measured effect to its halfway point. For orientation: CC50 means the concentration at which the toxic effect on the cells reaches its halfway point. Take `N#Cc1cc2ccccc2nc1SCC(=O)Nc1ccccc1N1CCOCC1`: the EC50 in [1] was 5.15 µM (active); in [2] it was 17.5 µM (active); in [3] it was > 99 µM (inactive); in [4], > 99 µM (inactive). Moreover, the CC50 with MEF is > 99 µM (inactive).

For the molecule `CCOc1ccc(CNC(=O)c2ccc(NC(=O)C3=CSCCO3)cc2)cc1`, the EC50 in [5] is 0.0608 µM (active).

For the molecule `COc1cc(C(=O)Oc2cc(N)n(S(=O)(=O)c3ccc(F)cc3)n2)cc(OC)c1OC`, the EC50 in assay [1] was 3.48 µM (active); in assay [2], 14.8 µM (active); in assay [3], > 99 µM (inactive); in assay [4] it was > 99 µM (inactive). The CC50 in the assay with MEF is 85.3 µM (active).

The term IC50 denotes the point on the concentration scale where inhibition reaches its midpoint. `CN1C(C(=O)Nc2cccc(O)c2)=CC(c2ccco2)=NS1(=O)=O`: the IC50 (in the assay with HEK293 [6]; in assay [7]) was > 67.6 µM (inactive) each time.

Turning to `CC(=O)c1c(C)[nH]c(C(=O)Nc2ccc(Cl)c(S(=O)(=O)N(C)C)c2)c1C`, the IC50 (with HEK293 [6]; in assay [7]) was > 67.5 µM (inactive) throughout.

By AC50 is commonly meant the concentration at which the activity in the assay is half-maximal. As to `NC(=O)C1CCN(C2=C(NS(=O)(=O)c3ccc(Br)cc3)C(=O)c3ccccc3C2=O)CC1`, in [8], the AC50 was 11.9 µM (active). The IC50 in assay [9] was 16.9 µM (active).

On to `C=CCc1ccc(OCCOc2ccc(/C=N/n3cnnc3)cc2OCC)c(OC)c1`, for which, in [5], the EC50 was 0.587 µM (active).

Consider `CNC(=O)CCc1nc(-c2ccc(C(C)(C)C)cc2)no1`, for which the IC50 in assay [10] was > 80 µM (inactive); with HEK293 [11], > 80 µM (inactive); with Jurkat, > 79 µM (inactive); in the assay with HEK293 [12], 53.1 µM (inactive). In addition, the results for the AC50 on Cytochrome P450 2C19 and on Cytochrome P450 2C9 were 39.8 µM (inconclusive) and 0.355 µM (inconclusive), respectively.
